Laboratory results published in US4443603A, “Piperazine derivatives, of aromatic acids” (Kowa Company Limited, priority 1981, dated 1984).

Key:
Format in all cases: biochemical
[1] = target: Chymotrypsin (Bos taurus, UniProt P00766); assay: Chymotrypsin inhibitory effects (Hestrin color method, acetyl-L-tyrosine ethyl ester substrate); settings: pH 8.0, 10 min preincubation, 30 min at 37° C., ethyl ester of acetyl-L-tyrosine; read-out: 50% Inhibitory Concentration, Chymotrypsin
Protocol: Following the procedure of Muramatsu et al [The Journal of Biochemistry, 62, 408 (1967)], a mixture of 0.1 ml of a dimethylsulfoxide solution of each test compound, 0.1 ml of water and 0.1 ml of a buffer solution containing chymotrypsin in an amount of 10 μg/ml (a 0.1 mole trishydrochloric acid buffer solution, pH 8.0) was incubated for 10 minutes, combined with 0.1 ml of a buffer solution containing 25 millimoles of an ethyl ester of acetyl-L-tyrosine and then reacted with the ethyl ester at 37° C. for 30 minutes. The remaining substrate was caused to develop a color in accordance with the Hestrin method, and the amount was determined by measuring the absorbance at 530 nm. As a control compound, use was made of tosylphenylalanine chloromethyl ketone.

[2] = target: Thrombin (Homo sapiens, UniProt P00734); assay: Thrombin inhibitory effects (Hestrin color method, tosylarginine methyl ester substrate); settings: pH 7.4, 10 min preincubation, 30 min at 37° C., methyl ester of tosylarginine; read-out: 50% Inhibitory Concentration, Thrombin
Protocol: Following the procedure of Tamura et al [Biochim. Biophys. Acta, 484, 417 (1977)], a mixture of 0.1 ml of a dimethylsulfoxide solution of each test compound, 0.1 ml of a buffer solution (a 0.1 mole sodium phosphate buffer, pH 7.4) and 0.1 ml of a buffer solution containing thrombin in an amount of 37.5 units/ml was incubated for 10 minutes, mixed with 0.2 ml of a buffer solution containing 25 millimoles of a methyl ester of tosylarginine and then reacted with the methyl ester at 37° C. for 30 minutes. The remaining substrate was caused to develop a color in accordance with the Hestrin method, and the amount was determined by measuring the absorbance at 530 nm.

[3] = target: T1, Trypsin (Bos taurus, UniProt P00760); assay: Trypsin inhibitory effects (Hestrin color method, tosylarginine methyl ester substrate); settings: pH 8.0, 10 min preincubation, 30 min at 37° C., methyl ester of tosylarginine; read-out: 50% Inhibitory Concentration, Trypsin
T1 sequence (P00760 24-246): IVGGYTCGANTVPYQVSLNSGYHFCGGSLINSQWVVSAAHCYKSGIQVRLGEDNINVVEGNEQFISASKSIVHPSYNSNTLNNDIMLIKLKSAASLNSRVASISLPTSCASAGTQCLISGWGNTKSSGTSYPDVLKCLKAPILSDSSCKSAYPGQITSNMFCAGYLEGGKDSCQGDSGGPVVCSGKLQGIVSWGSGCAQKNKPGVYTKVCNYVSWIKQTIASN
Protocol: Following the procedure of Muramatsu et al [The Journal of Biochemistry, 58, 214 (1967)], a mixture of 0.1 ml of a dimethylsufoxide solution of each test compound, 0.1 ml of a buffer solution (obtained by dissolving 10 millimoles of calcium chloride in a 0.1 mole trishydrochloric acid buffer solution, pH 8.0) and 0.1 ml of a buffer solution containing trypsin in an amount of 2.5 μg/ml was incubated for 10 minutes, mixed with 0.2 ml of a buffer solution containing 25 millimoles of a methyl ester of tosylarginine and then reacted with the methyl ester at 37° C. for 30 minutes. The remaining substrate was caused to develop a color in accordance with the Hestrin method, and the amount was determined by measuring the absorbance at 530 nm.

Row | SMILES | IC50 [1] [µM] | IC50 [2] [µM] | IC50 [3] [µM]
1 | Cc1ccc(S(=O)(=O)N[C@@H](Cc2ccccc2)C(=O)CCl)cc1 [TPCK, Tosylphenylalanine chloromethyl ketone, reference compound] | 500 |  | 
2 | COc1ccc2[nH]c(C)c(CC(=O)Oc3ccc(C(=O)OCCN4CCN(CCN5CCOCC5)CC4)cc3)c2c1 [Test Compound 1, 4-{[2-[4-[2-(Morpholino)ethyl]piperazino]ethyl]oxycarbonyl}phenyl 5-methoxy-2-methylindole-3-acetate] | 0.1 | 100 | 50
3 | COc1ccc2c(c1)c(CC(=O)Oc1ccc(C(=O)OCCN3CCN(CC(=O)N4CCCC4)CC3)cc1)c(C)n2C [Test Compound 2, 4-{[2-[4-(Pyrrolidinocarbonylmethyl)piperazino]ethyl]oxycarbonyl}phenyl 1,2-dimethyl-5-methoxyindole-3-acetate] | 0.07 | 900 | 500
4 | O=C(OCCN1CCN(CC(=O)N2CCOCC2)CC1)c1ccc(OC(=O)C2CCCc3ccccc32)cc1 (stereo not shown) [Test Compound 3, 4-{[2-[4-(Morpholinocarbonylmethyl)piperazino]ethyl]oxycarbonyl}phenyl 1,2,3,4-tetrahydro-1-naphthoate] | 0.6 | 90 | 500
5 | CN(C)C(=O)CN1CCN(CCOC(=O)c2ccc(OC(=O)Cc3cccc4ccccc34)cc2)CC1 [Test Compound 4, 4-{[2-[4-(Dimethylaminocarbonylmethyl)piperazino]ethyl]oxycarbonyl}phenyl 1-naphthylacetate] | 0.3 | 9 | > 1000
6 | O=C(Cc1cccc2ccccc12)Oc1ccc(C(=O)OCCN2CCN(CC(=O)N3CCCCC3)CC2)cc1 [Test Compound 5, 4-{[2-[4-(Piperidinocarbonylmethyl)piperazino]ethyl]oxycarbonyl}phenyl 1-naphtylacetate] | 0.3 | 9 | > 1000
7 | COc1ccc2[nH]c(C)c(CC(=O)Oc3ccc(C(=O)OCCN4CCN(CC(=O)N(C)C)CC4)cc3)c2c1 [Test Compound 6, 4-{[2-[4-(Dimethylaminocarbonylmethyl)piperazino]ethyl]oxycarbonyl}phenyl 5-methoxy-2-methylindole-3-acetate] | 0.5 | 60 | 80
8 | COc1ccc2[nH]c(C)c(CC(=O)Oc3ccc(C(=O)OCCN4CCN(CC(=O)N5CCOCC5)CC4)cc3)c2c1 [Test Compound 7, 4-{[2-[4-(Morpholinocarbonylmethyl)piperazino]ethyl]oxycarbonyl}phenyl 5-methoxy-2-methylindole-3-acetate] | 0.6 | 70 | 200
9 | COc1ccc2[nH]cc(CC(=O)Oc3ccc(C(=O)OCCN4CCN(CC(=O)N5CCCC5)CC4)cc3)c2c1 [Test Compound 8, 4-{[2-[4-(Pyrrolidinocarbonylmethyl)piperazino]ethyl]oxycarbonyl}phenyl 5-methoxyindole-3-acetate] | 0.05 | 600 | > 1000
10 | COc1ccc2[nH]c(C)c(CC(=O)Oc3ccc(C(=O)OCCN4CCN(C)CC4)cc3)c2c1 [Test Compound 9, 4-{[2-(4-Methylpiperazino)ethyl]oxycarbonyl}phenyl 5-methoxy-2-methylindole-3-acetate] | 0.06 | 40 | 300
11 | COc1ccc2[nH]c(C)c(CC(=O)Oc3ccc(C=CC(=O)N4CCN(CC(=O)N5CCCC5)CC4)cc3)c2c1 [Test Compound 10, 1-[4-(5-Methoxy-2-methylindole-3-acetyloxy)cynnamoyl]-4-(pyrrolidinocarbonylmethyl)piperazine] | 0.8 | 300 | 600
12 | COc1ccc2[nH]c(C)c(CC(=O)Oc3ccc(C(=O)NCCN4CCN(CC(=O)N5CCOCC5)CC4)cc3)c2c1 [Test Compound 11, 4-{[2-[4-(Morpholinocarbonylmethyl)piperazino]ethyl]carbamoyl}phenyl 5-methoxy-2-methylindole-3-acetate] | 0.6 | 100 | 80
